Blank lines part the entries; values can stand above or below the molecule they belong to.
Columns and labels:
[1] = target: T1, 3-oxo-5-alpha-steroid 4-dehydrogenase 1 (Homo sapiens, UniProt P18405); experiment: Apparent inhibitory activity against human Steroid 5-alpha-reductase type I expressed in CHO cells; Active; format: cell-based
T1 sequence (P18405 whole entry): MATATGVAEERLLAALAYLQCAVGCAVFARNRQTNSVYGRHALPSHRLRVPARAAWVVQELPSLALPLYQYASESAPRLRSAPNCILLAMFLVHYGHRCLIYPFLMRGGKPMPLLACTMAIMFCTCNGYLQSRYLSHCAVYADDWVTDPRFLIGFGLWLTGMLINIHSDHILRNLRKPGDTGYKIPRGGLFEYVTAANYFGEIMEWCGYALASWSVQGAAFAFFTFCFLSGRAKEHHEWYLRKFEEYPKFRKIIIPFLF

[2] = target: T2, 3-oxo-5-alpha-steroid 4-dehydrogenase 2 (Homo sapiens, UniProt P31213); experiment: Apparent inhibitory activity against human Steroid 5-alpha-reductase type 2 expressed in CHO cells; format: cell-based; details: read-out: Ki app
T2 sequence (P31213 whole entry): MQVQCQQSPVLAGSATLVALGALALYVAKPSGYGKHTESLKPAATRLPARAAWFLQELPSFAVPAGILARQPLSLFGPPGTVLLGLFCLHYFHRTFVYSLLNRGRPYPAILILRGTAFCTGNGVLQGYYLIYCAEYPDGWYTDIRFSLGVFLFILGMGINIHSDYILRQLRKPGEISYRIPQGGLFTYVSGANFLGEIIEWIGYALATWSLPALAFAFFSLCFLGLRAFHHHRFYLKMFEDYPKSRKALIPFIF

[3] = target: T1, 3-oxo-5-alpha-steroid 4-dehydrogenase 1; experiment: Apparent inhibitory activity against human Steroid 5-alpha-reductase type I expressed in CHO cells; format: cell-based; details: read-out: Ki app
[4] = target: T1, 3-oxo-5-alpha-steroid 4-dehydrogenase 1; experiment: Selective apparent inhibitory activity against human Steroid 5-alpha-reductase type I expressed in CHO cells; Active; format: cell-based
[5] = target: T3, 3-oxo-5-alpha-steroid 4-dehydrogenase 1 (Rattus norvegicus, UniProt P24008); experiment: Apparent inhibitory activity against rat prostatic Steroid 5-alpha-reductase type I
T3 sequence (P24008 whole entry): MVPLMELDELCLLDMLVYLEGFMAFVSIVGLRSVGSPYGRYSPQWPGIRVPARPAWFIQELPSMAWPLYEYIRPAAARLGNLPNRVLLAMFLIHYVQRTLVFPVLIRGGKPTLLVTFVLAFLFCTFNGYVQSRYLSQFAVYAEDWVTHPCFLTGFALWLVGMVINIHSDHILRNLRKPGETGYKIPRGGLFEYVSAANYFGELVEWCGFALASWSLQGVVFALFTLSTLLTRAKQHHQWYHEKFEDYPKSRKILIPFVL

Ki [1]: Active
Structure (SMILES): CN1C(=O)CC[C@@H]2c3ccc(Cl)cc3CC[C@H]21 [BEXLOSTERIDE]

Ki [2]: 2 µM
Ki [3]: 0.12 µM
Structure (SMILES): COc1cccc2c1CC[C@H]1[C-]([N+]#N)C(=O)CC[C@]21C

Ki [4]: Active
Structure (SMILES): C[C@]12CCC(C(=O)O)=CC1=CCc1cc(Cl)ccc12 (racemic)

Ki [1]: Active
Structure (SMILES): CN1C(=O)CC[C@]2(C)c3ccc(Cl)cc3CC[C@@H]12

Structure (SMILES): CC(CO)[C@H]1CC[C@H]2[C@@H]3CC[C@H]4C(=[N+]=[N-])C(=O)CC[C@]4(C)[C@H]3CC[C@]12C (stereo partly specified)
Ki [5]: 0.035 µM

Source: ChEMBL document CHEMBL1129010, “The preparation and evaluation of (+/-)-trans-1-Diazo-8-methoxy-4a-methyl-1,2,3,4,4a,9,10,10a-octahydro-phenanthren-2-one as an inhibitor of human type-1 steroid 5-reductase” (Bioorg Med Chem Lett, 1996)
